Laboratory results from patent US12691101B2, “Compound and method for preventing or treating of respiratory diseases comprising the same as an active ingredient” (YONSEI UNIVERSITY, UNIVERSITY - INDUSTRY FOUNDATION (UIF), priority 2019, dated 2026).

How the values were obtained:
AN01, CFTR and ENaC mRNA = experiment: Real-time PCR of AN01, CFTR and ENaC mRNA in IL-4-treated HNE cells; assay type: cell-based, human; settings: long-term treatment (F10: 120 hours)
Protocol: (§1) The total messenger RNA (mRNA) was extracted using TRIzol reagent (Invitrogen, Carlsbad, CA, USA), and was reverse-transcribed using a random hexamer primer, an oligo(dT) primer and SuperScript® III reverse transcriptase (Invitrogen). Quantitative real-time PCR was performed using StepOnePlus Real-Time PCR system (Applied Biosystems, Foster City, CA, USA) and Thunderbird SYBR qPCR mix (Tokyobo, Osaka, Japan). Thermal cycling conditions included the initial stage at 95° C. for 5 minutes, and subsequent 40 cycles at 95° C. for 10 seconds, at 55° C. for 20 seconds and at 72° C. for 10 minutes.

MUC5AC mRNA = experiment: Real-time PCR of MUC5AC mRNA in IL-4-treated HNE cells; assay type: cell-based, human; settings: IL-4-treated HNE cells (F10: 120 hours after treatment)
Protocol: (A) The MUC5AC mRNA expression level was determined at the indicated time after treatment of F56 ([…]) in IL-4 (10 ng/ml)-treated HNE cells (mean±S.E., n=4). (B) Periodic acid-Schiff (PAS) staining showing goblet cell hyperplasia of IL-4 and IL-13 (10 ng/ml)-treated HNE cells in presence or absence of F56 ([…]) at Day 7. (C) Measurement of the total volume of ASL and fluid meniscus in HNE cells expressing wild-type (wt) or mutant (mt) PDS. The HNE cells were treated with IL-4 (10 ng/ml, 48 hours) in presence or absence of […]. (D) Representative image of a transwell insert having normal HNE cells. Arrows indicate the fluid meniscus of HNE cells treated with IL-4 (10 ng/ml, 48 hours) in presence or absence of […]. (E) Representative protein expression result of pendrin in IL-4 and IL-13-treated HNE cells. […]
The MUC5AC mRNA expression level was determined in 120 hours after F10 treatment by real-time quantitative PCR in IL-4-treated HNE cells.
as §1, with “Thermal cycling conditions included the initial stage at 95° C. for 5 minutes, and subsequent 40 cycles at 95° C. for 10 seconds, at 55° C. for 20 seconds and at 72° C. for 10 minutes.” left out

[1] = target: T1, hERG (Kv11.1) potassium channel (Homo sapiens, UniProt Q12809); experiment: hERG potassium channel activity, thallium flux in HEK293T cells; assay type: cell-based
T1 construct: expressed in transfected cells
Protocol: (A) The inhibition of mouse pendrin (mPDS)-mediated Cl^−/I^− exchange activity by F56 was measured in CHO-K1 cells (mean±S.E., n=5). The indicated concentration of F56 was pretreated for 10 minutes. (B) Summary of dose-response for inhibition of the human pendrin (hPDS)-mediated (closed circle, FIG. (a), C) and mPDS-mediated (open circle) Cl^−/I^− exchange activity. (C-F) Representative traces of intracellular pH in CHO-K1 cells expressing SLC26A3, SLC26A6, SLC26A7 and SLC26A9 were shown. The application of Cl^− free solution induced intracellular alkalization by Cl^−/HCO3^− exchange. The indicated concentration of F56 was pretreated for 10 minutes. (G) the effect of F56 (100 μM) on the CFTR chloride channel activity was measured in FRT cells expressing human CFTR. […] (H) The effect of F56 (100 μM) on the AN01 chloride channel activity was measured in FRT cells expressing human AN01. […] (I) The effect of F56 on the hERG (Kv11.1) potassium channel activity was measured in HEK293T cells expressing human Kv11.1 (mean±S.E., n=4). […] (J) The effect of F56 on the 5-HT2A channel activity was measured in FRT cells expressing human 5-HT2A (mean±S.E., n=4). […]
(A) The effect of F10 (30 μM) on the CFTR channel was measured in FRT cells expressing human CFTR and mutant YFP. […] (B) The effect of F10 (30 μM) on the AN01 channel activity was measured in FRT cells expressing human and mutant YFP. […]

PDS mRNA = experiment: Real-time PCR of PDS mRNA in IL-4-treated HNE cells; assay type: cell-based, human; settings: IL-4-treated HNE cells (F10: 120 hours after treatment)
Protocol: as §1

T1 sequence (Q12809 whole entry): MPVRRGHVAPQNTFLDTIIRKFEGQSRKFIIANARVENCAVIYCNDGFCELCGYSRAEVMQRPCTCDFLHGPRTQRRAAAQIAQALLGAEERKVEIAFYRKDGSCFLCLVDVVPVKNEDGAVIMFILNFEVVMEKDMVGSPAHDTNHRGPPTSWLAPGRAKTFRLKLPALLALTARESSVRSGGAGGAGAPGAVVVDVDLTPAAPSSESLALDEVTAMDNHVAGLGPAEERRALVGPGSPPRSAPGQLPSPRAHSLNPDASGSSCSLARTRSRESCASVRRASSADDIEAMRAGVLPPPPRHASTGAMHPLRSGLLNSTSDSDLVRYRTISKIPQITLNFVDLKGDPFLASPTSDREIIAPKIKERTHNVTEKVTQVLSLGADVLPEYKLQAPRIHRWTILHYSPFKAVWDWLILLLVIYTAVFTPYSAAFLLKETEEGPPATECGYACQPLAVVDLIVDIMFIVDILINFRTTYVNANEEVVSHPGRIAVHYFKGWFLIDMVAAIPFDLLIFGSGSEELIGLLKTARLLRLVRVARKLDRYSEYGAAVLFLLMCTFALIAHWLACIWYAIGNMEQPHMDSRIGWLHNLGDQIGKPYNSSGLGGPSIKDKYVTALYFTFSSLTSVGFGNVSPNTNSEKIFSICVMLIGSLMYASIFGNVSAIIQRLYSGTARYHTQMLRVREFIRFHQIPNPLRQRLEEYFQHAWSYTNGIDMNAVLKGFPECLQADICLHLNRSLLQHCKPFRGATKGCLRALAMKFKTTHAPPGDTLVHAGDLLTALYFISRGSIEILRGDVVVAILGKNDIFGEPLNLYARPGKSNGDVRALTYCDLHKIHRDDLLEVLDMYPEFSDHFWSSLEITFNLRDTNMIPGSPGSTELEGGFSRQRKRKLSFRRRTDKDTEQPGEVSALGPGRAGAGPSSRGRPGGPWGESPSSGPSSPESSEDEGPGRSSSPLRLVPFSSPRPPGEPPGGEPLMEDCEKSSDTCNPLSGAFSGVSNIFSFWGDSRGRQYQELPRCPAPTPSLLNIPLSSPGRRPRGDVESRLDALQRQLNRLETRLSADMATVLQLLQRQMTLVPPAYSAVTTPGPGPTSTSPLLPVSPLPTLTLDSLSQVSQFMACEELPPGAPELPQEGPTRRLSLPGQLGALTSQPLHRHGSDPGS

Structure (SMILES) | mRNA expression of AN01, CFTR and ENaC (AN01, CFTR and ENaC mRNA) | mRNA expression of IL-4-induced MUC5AC (MUC5AC mRNA) | effect on hERG channel activity ([1]; pretreated 10 minutes) | PDS mRNA expression level (PDS mRNA) | effect on hERG channel activity ([1]; 30 μM)
CC(C)(C)c1ccc(C2=NC(=Cc3cccs3)C(=O)O2)cc1 [F56, 2-(4-(tert-butyl)phenyl)-4-(thiophen-2-ylmethylene)oxazol-5(4H)-one] | did not change | significantly reduced | not affected | without changes of the mRNA expression level | 
CC(C)(C)c1ccc(C2=NC(=Cc3ccc[nH]3)C(=O)O2)cc1 [F10, 4-((1H-pyrrol-2-yl)methylene)-2-(4-(tert-butyl)phenyl)oxazol-5 (4H)-one] | did not show any effect | reduced the mRNA expression of MUC5AC in a concentration-dependent manner |  | did not show any effect | did not show any effect
